Converted amounts (≈) assume the structure as drawn. The source made the active and inactive calls. The calls are words filed in the database; no cut-off is given here.
Assays:
[1] = test system: Mycobacterium tuberculosis; assay: Antitubercular activity against Mycobacterium tuberculosis H37Rv ATCC 27294 measured every 24 hr by BACTEC 460 radiometric assay; assay type: functional; conditions: H37Rv ATCC 27294, 24 h
[2] = test system: Mycobacterium tuberculosis; assay: Antitubercular activity against Mycobacterium tuberculosis H37Rv ATCC 27294 at 100 ug/ml measured every 24 hr by BACTEC 460 radiometric assay; assay type: functional, organism-based

Row | SMILES | MIC [1] [µg/mL] | Activity [2]
1 | O=c1c(O)c(-c2cc(O)c(O)c(O)c2)oc2cc(O)cc(O)c12 [MYRICETIN] | 50 (≈ 157 µM) | 
2 | O=c1cc(-c2ccc(O)c(O)c2)oc2cc(O)cc(O)c12 [LUTEOLIN] | 25 (≈ 87.3 µM) | 
3 | C[C@H]1O[C@H](Oc2c(-c3ccc(O)cc3)oc3cc(O)cc(O)c3c2=O)[C@@H](O)[C@@H](O)[C@@H]1O |  | inactive
4 | O=c1cc(-c2ccccc2)oc2cc(O)c(O)c(O)c12 [BAICALEIN] | 50 (≈ 185 µM) | 
5 | CN[C@@H]1[C@H](O[C@H]2[C@H](O[C@H]3[C@H](O)[C@@H](O)[C@H](N=C(N)N)[C@@H](O)[C@@H]3N=C(N)N)O[C@@H](C)[C@]2(O)C=O)O[C@@H](CO)[C@H](O)[C@H]1O [STREPTOMYCIN] | 2 (≈ 3.44 µM) | 
6 | O=c1cc(-c2ccccc2)oc2cc(O)cc(O)c12 |  | inactive
7 | COc1ccc(-c2oc3cc(OC)c(OC)c(O)c3c(=O)c2OC)cc1O |  | inactive
8 | COc1ccc([C@@H]2CC(=O)c3c(O)cc(O[C@@H]4O[C@H](CO[C@@H]5O[C@@H](C)[C@H](O)[C@@H](O)[C@H]5O)[C@@H](O)[C@H](O)[C@H]4O)cc3O2)cc1O |  | inactive
9 | O=c1c(O)c(-c2ccc(O)c(O)c2)oc2cc(O)cc(O)c12 [QUERCETIN] | 50 (≈ 165 µM) | 
10 | COc1c(O)cc2oc(-c3ccc(O)cc3)cc(=O)c2c1O [HISPIDULIN] | 100 (≈ 333 µM) | 
11 | O=c1c(O)c(-c2ccc(O)cc2)oc2cc(O)cc(O)c12 |  | inactive
12 | O=c1c(O)c(-c2ccccc2)oc2cc(O)cc(O)c12 |  | inactive
13 | CO[C@H]1/C=C/O[C@@]2(C)Oc3c(C)c(O)c4c(O)c(c(/C=N/N5CCN(C)CC5)c(O)c4c3C2=O)NC(=O)/C(C)=C\C=C\[C@H](C)[C@H](O)[C@@H](C)[C@@H](O)[C@@H](C)[C@H](OC(C)=O)[C@@H]1C [RIFAMPIN] | 2 (≈ 2.43 µM) | 
14 | O=c1cc(-c2ccc(O)cc2)oc2cc(O)cc(O)c12 |  | inactive
15 | O=c1cc(-c2ccc(O)cc2)oc2cc(OC3O[C@H](CO)[C@@H](O)[C@H](O)[C@H]3O)cc(O)c12 (some centres not stated) |  | inactive
16 | C[C@@H]1O[C@@H](OC[C@H]2O[C@@H](Oc3c(-c4ccc(O)c(O)c4)oc4cc(O)cc(O)c4c3=O)[C@H](O)[C@@H](O)[C@@H]2O)[C@H](O)[C@H](O)[C@H]1O |  | inactive
17 | COc1c(O)cc2oc(-c3ccccc3)cc(=O)c2c1O |  | inactive
